Experimental data published in US7135481B2, “Naphthalimide compositions and uses thereof” (ChemGenex Pharmaceuticals, Inc., priority 2000, dated 2006).

Legend:
[1] = tested on: RIF-1 murine fibrosarcoma; test: Example 2: RIF-1 tumor growth delay (TVQT), amonafide alone and with other chemotherapeutics; settings: for TVQT: single agent, mean ± SE
Description: Animals: Female C3H mice (Charles River Laboratories, Holister, Calif.), approximately 3 months old, were used for the study. The average body weight was approximately 25 g. Animals were maintained in isolator cages on a 12-hour light-and-dark cycle. Food and water were available ad libitum.
Tumors: The RIF-1 murine fibrosarcoma cell line was maintained in in vitro culture (Waymouth medium supplemented with 20% fetal bovine serum) at 37 C. in a humidified 5% CO2 incubator. Log-phase RIF-1 cells were trypsinized and harvested from cell culture flasks to yield a concentration of 4×10^6 cells/mL, then injected intradermally in a volume of 50 μL (equivalent to 2×10^5 cells per injection) into both flanks of each mouse. Nine days later, when tumors reached approximately 100 mm^3 in size, the animals were randomized to different treatment groups.
Four to five animals were assigned to each treatment group. The intrperitoneal injection volume was 100 μL. The oral administration volume was 100 μL. Combination treatments using two test agents were administered as two separate injections, with the second one following the first either immediately or after 30 minutes.
Tumor volume (cubic millimeters, mm^3) was calculated according to the formula: V=π/6×D1×D2×D3 in which D1–3 are perpendicular diameters measured in millimeters (mm).
Tumor volume quadrupling time (TVQT), defined as the time required for a tumor to grow to four times (4×) its initial volume (at the time of treatment), was used as a study endpoint. The TVQT was determined for each treatment group and expressed in days as the mean±standard error (SE).

[2] = Example 2: animal deaths after treatment; type: in vivo, C3H mice; settings: formulated in DMSO at 12.5 mg/mL, IP
Description: The average body weight was approximately 25 g. […] Food and water were available ad libitum.
The intrperitoneal injection volume was 100 μL. The oral administration volume was 100 μL.

[3] = tested on: murine fibrosarcomas (RIF-1 cells); test: Example 3: RIF-1 tumor growth delay (TGD), amonafide with camptothecin, genistein or rosmarinic acid; type: in vivo, C3H mice; settings: single agent
Description: Transplantable experimental murine fibrosarcomas (2×10^5 RIF-1 cells) were grown intradermally in the flanks of 3 month old female C3H mice (Charles River, Holister, Calif.). When the tumors reached a volume of −100 mm^3, the mice were randomly assigned to each experimental group (4 mice per group).
Amonafide was manufactured by Penta for ChemGenex and was made to the appropriate concentration in saline. […] The compositions were injected systemically (i.e., intraperitoneally, i.p.), in a volume of 100 μl. For the treatment of groups 3, 5 and 7, amonafide, was injected immediately prior to the injection of camptothecin, genistein or rosmarinic acid. After treatment, the growth of the tumors was monitored three times per week by caliper measurements of three perpendicular diameters of the tumor and calculation of tumor volume from the formula: V=π/6×D1×D2×D3, where D1-3 represents tumor diameters, in mm.
The data is also expressed as the tumor growth delay (TGD) median which is the median days to 4× the tumor volume from the initial treatment day, and as the delay which is the median days to 4× of the treated group minus the median days to 4× of the control group. The T/C ratio is the ratio of days to 4× of the treated tumors over the days to 4× of the untreated control tumors. Increasing values indicate increased antitumor response.
The tumors were followed until they reached 4 times their Day 0 treatment volume or up to 30 days after treatment (tumor growth delay, TGD), whichever came first. The data is also expressed as the ratio of the tumor growth delay of the treated tumor (TGD) over the untreated control group (CTGD). Increasing values of this ratio indicate increased antitumor response.

[4] = tested on: murine fibrosarcomas (RIF-1 cells); test: Example 1: tumor growth delay (TVQT) of RIF-1 fibrosarcoma, amonafide with cisplatin; type: in vivo, C3H mice; settings: single agent
Description: When the tumors reached a volume of approximately 100 mm3, the mice were randomly assigned to each experimental group (4 mice per group).
The chemopotentiator, amonafide, was obtained from NCI and was made to the appropriate concentration in DMSO. […] The compositions were injected systemically (i.e., intraperitoneally, i.p.), in a volume of 100 microliters. For the treatment of group 3, the chemopotentiator, amonafide, was injected 30 minutes prior to the injection of cisplatin. After treatment, the growth of the tumors was monitored three times per week by caliper measurements of three perpendicular diameters of the tumor and calculation of tumor volume from the formula: V=π/6×D1×D2×D3, where D1-3 represents tumor diameters, in mm.
The tumors were followed until they reached a size of four times their day zero treatment volume (TVQT), or up to 30 days after treatment, whichever came first. The data is expressed as the “tumor volume quadrupling time” (TVQT) mean and as the “delay.” Mean TVQT is the mean days required for individual tumors to grow to four times the tumor volume at the initial treatment day. The “delay” is the median of days required for a tumor to grow to four times the mean size of the treated group, minus the median of days required to grow to four times the mean size of the control group. The data is also expressed as the ratio of the tumor volume quadrupling time of the treated tumor over the untreated control group (TVQT/CTVQT). Increasing values of this ratio indicate increased antitumor response.

Molecule `O=c1[nH]cc(F)c(=O)[nH]1` [5-Fluorouracil] has a TVQT ([1]; 15 mg/Kg IP) of 6.7 days, a TVQT ([1]; 15 mg/Kg IP, listed as Fluorouracil/Saline) of 6.7 ± 0.4 days and a TVQT ([1]; 30 mg/Kg IP) of 13.6 days. The TVQT ([1]; 30 mg/Kg IP, listed as Fluorouracil/Saline) was 13.6 ± 1.9 days.
With `CN(C)CCN1C(=O)c2cccc3cc(N)cc(c23)C1=O` [Amonafide, 5-amino-2-[(dimethylamine)ethyl]-1H-benz[de-]isoquinoline-1,3-(2H)-dione] the animal deaths [2] was “Two of four mice died”, the “Delay” value ([3]; 30 mg/kg i.p.) was -0.36 days and the “Median (TGD)” value ([3]; 30 mg/kg i.p.) was 7.0 days. For the same molecule, the “TGD ± S.E.” value ([3]; 30 mg/kg i.p.) was 7.0 ± 0.4 days, the TGD/CTGD ([3]; 30 mg/kg i.p.) was 0.9 and the TVQT ([1]; 30 mg/Kg IP) was 7.3 days. For the same molecule, the TVQT ([1]; 30 mg/Kg IP, listed as Amonafide-Penta/Saline) was 7.3 ± 0.2 days, the “antitumor activity, summary in words (versus amonafide alone and the individual test agents)” value ([1]; intraperitoneal amonafide, alone or in combination) was “had antitumor activity” and the “Delay” value ([4]; 50 mg/kg i.p.) was 2.94 days. For the same molecule, the “Mean TVQT ± S.E.” value ([4]; 50 mg/kg i.p.) was 9.7 ± 0.6 days, the “Median (TVQT)” value ([4]; 50 mg/kg i.p.) was 9.0 days and the TVQT/CTVQT ([4]; 50 mg/kg i.p.) was 1.5.
In the case of `CC[C@@]1(O)C(=O)OCc2c1cc1n(c2=O)Cc2cc3ccccc3nc2-1` [Camptothecin], the “Delay” value ([3]; 6 mg/kg i.p.) is reported as 5.45 days, the “Median (TGD)” value ([3]; 6 mg/kg i.p.) is reported as 12.8 days and the “TGD ± S.E.” value ([3]; 6 mg/kg i.p.) is reported as 12.9 ± 0.5 days. For the same molecule, the TGD/CTGD ([3]; 6 mg/kg i.p.) was 1.7.
With `N.N.[Cl][Pt][Cl]` [Cisplatin, cis-diamminedichloroplatinum II] the TVQT ([1]; 4 mg/Kg IP) was 9.2 days, the TVQT ([1]; 4 mg/Kg IP, listed as Cisplatin/WFI) was 9.2 ± 0.4 days and the “Delay” value ([4]; 4 mg/kg i.p.) was 2.10 days. For the same molecule, the “Mean TVQT ± S.E.” value ([4]; 4 mg/kg i.p.) was 8.4 ± 0.3 days, the “Median (TVQT)” value ([4]; 4 mg/kg i.p.) was 8.1 days and the TVQT/CTVQT ([4]; 4 mg/kg i.p.) was 1.3.
`COc1cc2c(c(OC)c1OC)-c1ccc(OC)c(=O)cc1[C@@H](NC(C)=O)CC2` [Colchicine, colchicine] showed a TVQT ([1]; 10 mg/Kg PO) of 6.3 days and a TVQT ([1]; 10 mg/Kg PO, listed as Colchicine/Saline) of 6.3 ± 0.3 days.
For `COc1cc(/C=C/C(=O)CC(=O)/C=C/c2ccc(O)c(OC)c2)ccc1O` [Curcumin], the TVQT ([1]; 25 mg/Kg IP) was 9.7 days and the TVQT ([1]; 25 mg/Kg IP, listed as Curcumin/DMSO) was 9.7 ± 1.1 days.
Work on `COc1cc([C@@H]2c3cc4c(cc3[C@@H](O[C@@H]3O[C@@H]5CO[C@@H](C)O[C@H]5[C@H](O)[C@H]3O)[C@H]3COC(=O)[C@H]23)OCO4)cc(OC)c1O` [Etoposide] yielded a TVQT ([1]; 10 mg/Kg IP) of 8.5 days and a TVQT ([1]; 10 mg/Kg IP, listed as Etoposide/Saline) of 8.5 ± 0.5 days.
In the case of `O=c1c(-c2ccc(O)cc2)coc2cc(O)cc(O)c12` [Genistein], the “Delay” value ([3]; 60 mg/kg i.p.) is reported as 0.78 days, the “Median (TGD)” value ([3]; 60 mg/kg i.p.) is reported as 8.1 days and the “TGD ± S.E.” value ([3]; 60 mg/kg i.p.) is reported as 7.9 ± 0.4 days. For the same molecule, the TGD/CTGD ([3]; 60 mg/kg i.p.) was 1.1.
`COC(=O)C[C@](O)(CCCC(C)(C)O)C(=O)O[C@@H]1C(OC)=C[C@]23CCCN2CCc2cc4c(cc2[C@H]13)OCO4` [Homoharringtonine, homoharringtonine] showed a TVQT ([1]; 4 mg/Kg IP, listed as Homoharringtonine/WFI) of 8.5 ± 0.5 days and a TVQT ([1]; 4 mg/Kg IP, listed as homoharringtonie) of 8.5 days.
With `CC(=O)O[C@H]1C(=O)[C@@]2(C)[C@H]([C@H](OC(=O)c3ccccc3)[C@]3(O)C[C@H](OC(=O)[C@H](O)[C@@H](NC(=O)c4ccccc4)c4ccccc4)C(C)=C1C3(C)C)[C@]1(OC(C)=O)CO[C@@H]1C[C@@H]2O` [Paclitaxel] the TVQT ([1]; 10 mg/Kg IP) was 7.9 days and the TVQT ([1]; 10 mg/Kg IP, listed as Paclitaxel/Cremaphor EL) was 7.9 ± 0.3 days.
For `O=C(/C=C/c1ccc(O)c(O)c1)O[C@H](Cc1ccc(O)c(O)c1)C(=O)O` [Rosmarinic Acid], the “Delay” value ([3]; 20 mg/kg i.p.) was 0.46 days, the “Median (TGD)” value ([3]; 20 mg/kg i.p.) was 7.8 days and the “TGD ± S.E.” value ([3]; 20 mg/kg i.p.) was 8.4 ± 0.5 days. For the same molecule, the TGD/CTGD ([3]; 20 mg/kg i.p.) was 1.1.
Molecule `CC[C@]1(O)C[C@@H]2CN(CCc3c([nH]c4ccccc34)[C@@](C(=O)OC)(c3cc4c(cc3OC)N(C)[C@H]3[C@@](O)(C(=O)OC)[C@H](OC(C)=O)[C@]5(CC)C=CCN6CC[C@]43[C@@H]65)C2)C1` [Vinblastine] has a TVQT ([1]; 2 mg/Kg IP) of 8.6 days and a TVQT ([1]; 2 mg/Kg IP, listed as Vinblastine/Saline) of 8.6 ± 0.4 days.
